In US20040171795A1, “Novel peptides” (priority 2000, published 2004):
pIC50: −log10 of the molar value. Values belong to the substance of their own block, whether it stands above or below them.

How the values were obtained:
[1] = Measurement of turbidity in BSA; assay type: physicochemical; details: BSA 1%, peptide 50 μM, absorbance at 600 nm
Experimental: The solutions were evaluated for their absorbance at a wavelength of 600 nm by using a spectrophotometer (DU640, manufactured by Beckman).

[2] = tested on: cell (Vero, T24 or A549 of Example 9; not given); experiment: Nucleic acid-introducing ability, luciferase-expressing plasmid (procedure of Example 9); assay type: cell-based; details: for Nucleic acid-introducing ability: class of fluorescent count per 1 mg of protein per 1 second, highest of peptide 1.25, 2.5, 5 μM, plasmid 1 μg/mL; for ability of introducing the nucleic acid into a cell: procedure of Example 9, luciferase-expressing plasmid
Excerpt: A cell line established from monkey kidney (Vero cell) and a human bladder cancer cell (T24 cell) purchased from American Type Culture Collection (ATCC) and human lung cancer cell (A549 cell) purchased from Dainippon Pharmaceutical were inoculated on a 24 well culture plate (manufactured by NALGEN NUNC) at 1×10^5 cells/well. Vero cell and A549 cell were cultivated in DMEM (manufactured by Life Technologies Oriental) supplemented with 10% fetal bovine serum (hereinafter referred to as FBS, manufactured by NICHIREI), and T24 cell was cultivated in McCoy's 5a (manufactured by Life Technologies Oriental) supplemented with 10% FBS in 5% CO2 atmosphere at 37° C. for 24 hours. After removing the medium, opti-MEM (manufactured by Life Technologies Oriental) prepared to have the concentration of the luciferase-expressing plasmid prepared in Example 7 of 1 μg/mL and the concentration of the peptide prepared in Example 1 of 1.25, 2.5, or 5 μM was added, and the cells were cultivated for 5 hours. Next, in the case of Vero cell and A549 cell, the culture medium was replaced with DMEM supplemented with 10% FBS, and in the case of T24 cell, the medium was replaced with McCoy's 5a supplemented with 10% FBS, and cultivation was continued in 5% CO2 atmosphere and at 37° C. for another 24 hours. The luciferase activity expressed in the cell was then measured by the method instructed in luciferase assay system (manufactured by Promega). To be more specific, the cells were washed with phosphate-buffered saline (hereinafter referred to as PBS, manufactured by SIGMA), and the cells were lyzed with Passive Lysis Buffer attached to the kit. 20 μL of this cell lysate and 100 μL of the Luciferase Assay Reagent II attached to the kit was added to a fluorescence-measuring plate (Microlite™ 1 plate, manufactured by Dynatech), and after mixing, fluorescence was measured for 1 second by using a multilabel counter (ARVO™ SY1420 MULTILABEL COUNTER, manufactured by Wallac Beltold.
Concentration of the protein in the cell lysate was measured by mixing 8 μL of the cell lysate and 200 μL of the protein assay solution (manufactured by Biorad) with 792 μL of ultrapure water in a disposable cuvette (UV fluorescent cuvette A204X, manufactured by Funakoshi), allowing the mixture to stand for 5 minutes at room temperature, and measuring the absorption at 595 nm with a spectrophotometer (DU640, manufactured by Beckman). Bovine serum albumin (BSA) was used for the standard protein. By using the thus obtained results, count per 1 second per 1 mg of protein of the cell lysate was calculated to thereby use the count as the luciferase activity, and the highest count in the three conditions of different peptide concentration was designated the gene-introducing ability of the peptide.
It is to be noted that the nucleic acid-introducing ability was classified as described below on the bases of the fluorescent count per 1 mg of protein per 1 second (cps/mg protein).

[3] = Affinity for phosphatidyl serine (EIA, inhibition of human Factor VIII binding); details: for pIC50: class of IC50 for inhibiting human Factor VIII binding, 5% BSA
Experimental: The specific affinity of the peptide for phosphatidyl serine was evaluated by measuring activity of the peptide for inhibiting the binding of the human Factor VIII to phosphatidyl serine by using human Factor VIII which is known to bind to phosphatidyl serine but not to phosphatidyl choline in the presence of serum albumin. To be more specific, 100 μL of ethanol solution containing 10 μg/mL of phospholipids at a phosphatidyl serine (manufactured by SIGMA): phosphatidyl choline (manufactured by SIGMA) ratio of 3:7 was added to the wells of a 96 well plate (Immulon I, manufactured by Dynatech), and exsiccated by using a centrifugal evaporator (EC-95C, manufactured by Sakuma Seisakusho) at 40° C. for 40 minutes. 200 μL each of TBS (10 mM Tris-HCl (pH 7.4) containing 1% bovine serum albumin (BSA Fraction V, hereinafter referred to as BSA, manufactured by Seikagaku Corporation) and 0.9% (W/V) NaCl solution were added to each well, and the wells were blocked by allowing the plate to stand at 37° C. for 2.5 hours. After washing the plate with water, 100 μL of TBS solution supplemented with 5% BSA mixed with human Factor VIII (manufactured by American Diagnostica) at a final concentration 1 μg/mL and the peptide of predetermined dose prepared in Example 1 was added to each well, and the reaction was allowed to take place at 4° C. for 24 hours.
After the completion of the reaction, the human Factor VIII that became bound to the phosphatidyl serine was measured by enzyme immunoassay (EIA) in accordance with the general procedure described in a book (“Enzyme Immunoassay (3rd ed.)”, Eiji Ishikawa et al., Igaku-Shoin, 1987). To be more specific, the measurement was conducted by using anti-human Factor VIII mouse monoclonal antibody (ESH8, manufactured by American Diagnostica) for the primary antibody, horseradish peroxidase-labeled anti-mouse IgG antibody (P0260, manufactured by Daco) for the secondary antibody, and tetramethylbenzidine for the chromogenic substrate, and measuring the absorption at a wavelength of 450 nm by using a reference wavelength of 630 nm on a spectrophotometer (NJ-2100, manufactured by Intermed).
Intensity of the affinity of the peptide for the phosphatidyl serine was evaluated by using the value obtained by subtracting the absorption of the well having no human Factor VIII added thereto from the absorption of the well having only the human Factor VIII added thereto as the control value (100%), and designating the peptide concentration at which the value 0.5 was obtained when the value obtained by subtracting the absorption of the well having only the peptide added thereto from the absorption of the well having a mixture of the human Factor VIII and the peptide added thereto were divided by the control value as the IC50 value, and evaluating the intensity to be ++ when the IC50 value was up to 1 μM, and +when the intensity was more than 1 μM but not more than 10 μM. It is to be noted that the specific affinity was evaluated to be none when the intensity was 10 μM or more.

pIC50 [3]: > 6.00
Substance: SEQ ID NO: 3: peptide of SEQ ID NO:1 with one or two locations substituted in the 18 amino acid sequence (TRYLRIHPRSWVHQIRLRLRYLRIHPRSWVHQIRLRS; synthetic peptide using an automatic peptide synthesizer)
OD 600 [1]: 0.01>
Nucleic acid-introducing ability [2]: 2+ (100,000 to less than 1,000,000)

pIC50 [3]: > 6.00
Substance: SEQ ID NO: 23: deletion mutant of the peptide of SEQ ID NO:1 (TIHPRSWVHQIALRLRYLRIHPRSWVHQIAS; synthetic peptide using an automatic peptide synthesizer)
OD 600 [1]: 0.01>
Nucleic acid-introducing ability [2]: 2+ (100,000 to less than 1,000,000)
ability of introducing the nucleic acid into a cell [2]: had the ability of introducing the nucleic acid into a cell

pIC50 [3]: 5.00 to 6.00
Substance: SEQ ID NO: 10: peptide of SEQ ID NO:1 with one or two locations substituted in the 18 amino acid sequence (TRSLRIHPRSWVHQIALRLRSLRIHPRSWVHQIALRS; synthetic peptide using an automatic peptide synthesizer)
OD 600 [1]: 0.01>
Nucleic acid-introducing ability [2]: 3+ (1,000,000 to less than 10,000,000)

pIC50 [3]: 5.00 to 6.00
Substance: SEQ ID NO: 8: peptide of SEQ ID NO:1 with one or two locations substituted in the 18 amino acid sequence (TRYLRIHPKSWVHQIALRLRYLKIHPRSWVHQIALRS; synthetic peptide using an automatic peptide synthesizer)
OD 600 [1]: 0.01>
Nucleic acid-introducing ability [2]: 3+ (1,000,000 to less than 10,000,000)

Substance: SEQ ID NO: 22: peptide of SEQ ID NO:1 with three locations substituted in the 18 amino acid sequence (TRRLRIHPRRWVHRIALRLRRLRIHPRRWVHRIALRS; synthetic peptide using an automatic peptide synthesizer)
Nucleic acid-introducing ability [2]: 3+ (1,000,000 to less than 10,000,000)

Substance: SEQ ID NO: 13: peptide of SEQ ID NO:1 with one or two locations substituted in the 18 amino acid sequence (TRYLRIHPRSLVHQIALRLRYLRIHPRSLVHQIALRS; synthetic peptide using an automatic peptide synthesizer)
Nucleic acid-introducing ability [2]: 3+ (1,000,000 to less than 10,000,000)

Substance: Polylysine [reference compound]
OD 600 [1]: ≥ 1
affinity for phosphatidyl serine ([3]; procedure of Example 20): no affinity for phosphatidyl serine

pIC50 [3]: > 6.00
Substance: SEQ ID NO: 15: peptide of SEQ ID NO:1 with one or two locations substituted in the 18 amino acid sequence (TRYLRIRPRSWVRQIALRLRYLRIRPRSWVRQIALRS; synthetic peptide using an automatic peptide synthesizer)
OD 600 [1]: 0.01>
Nucleic acid-introducing ability [2]: 2+ (100,000 to less than 1,000,000)

Substance: SEQ ID NO: 24: deletion mutant of the peptide of SEQ ID NO:4 (TLRYLRIHPRSWLHQIALRS; synthetic peptide using an automatic peptide synthesizer)
Nucleic acid-introducing ability [2]: 1+ (10,000 to less than 100,000)
ability of introducing the nucleic acid into a cell [2]: had the ability of introducing the nucleic acid into a cell

Substance: SEQ ID NO: 18: peptide of SEQ ID NO:1 with one or two locations substituted in the 18 amino acid sequence (TRYLRIHPRSWLHQIALRTRYLRIHPRSWLHQIALRS; synthetic peptide using an automatic peptide synthesizer)
Nucleic acid-introducing ability [2]: 4+ (10,000,000 or more)

Substance: SEQ ID NO: 14: peptide of SEQ ID NO:1 with one or two locations substituted in the 18 amino acid sequence (TRYLRIHPRSWSHQIALRLRYLRIHPRSWSHQIALRS; synthetic peptide using an automatic peptide synthesizer)
Nucleic acid-introducing ability [2]: 3+ (1,000,000 to less than 10,000,000)

Substance: SEQ ID NO: 9: peptide of SEQ ID NO:1 with one or two locations substituted in the 18 amino acid sequence (TRYLRIHPRSWVHQIALRTRYLRIHPRSWVHQIALRS; synthetic peptide using an automatic peptide synthesizer)
Nucleic acid-introducing ability [2]: 3+ (1,000,000 to less than 10,000,000)

Substance: SEQ ID NO: 20: peptide of SEQ ID NO:1 with three locations substituted in the 18 amino acid sequence (TRYLRLHPRSWVHQLALRTRYLRLHPRSWVHQLALRS; synthetic peptide using an automatic peptide synthesizer)
Nucleic acid-introducing ability [2]: 4+ (10,000,000 or more)

Substance: SEQ ID NO:26: comparative peptide, SEQ ID NO:1 substituted so that it lacks the four sided 18 amino acid sequence (TRYLRIHPRSWVLQIALRLRYLRIHPRSWVLQIALRS; synthetic peptide using an automatic peptide synthesizer) [reference compound]
fluorescent count ([2]; procedure of Example 9): less than 10,000 cps/mg protein
ability of introducing the nucleic acid into a cell [2]: no nucleic acid-introducing ability was found

Substance: SEQ ID NO: 21: peptide of SEQ ID NO:1 with three locations substituted in the 18 amino acid sequence (TKYLKIHPKSWVHQIALRLKYLKIHPKSWVHQIALRS; synthetic peptide using an automatic peptide synthesizer)
Nucleic acid-introducing ability [2]: 2+ (100,000 to less than 1,000,000)

Substance: SEQ ID NO: 12: peptide of SEQ ID NO:1 with one or two locations substituted in the 18 amino acid sequence (TRYLRIHPRSWVHQIALSLRYLRIHPRSWVHQIALSS; synthetic peptide using an automatic peptide synthesizer)
Nucleic acid-introducing ability [2]: 2+ (100,000 to less than 1,000,000)
